# Measured values taken from patent publication US12661343B2, “Compositions containing nicotinamide and vitamin B6 and methods of using such compositions for promoting muscle growth” (SOCIETE DES PRODUITS NESTLE S.A., priority 2020, dated 2026).
# Tested on: Human primary myoblasts
# Assay: Myogenic amplification and commitment of muscle stem cells (Pax7/MyoD staining, image quantification)
# Assay type: cell-based
# Details: donors 1 and 2 pooled, dose response, 96 hours, normalized to total cell number, control DMSO 1%; for proportion of MyoD+ cells (differentiating), fold change compared to the control condition: FIG. 1B/2B
# Protocol: Human Skeletal Muscle Myoblasts were purchased from Lonza (https://bioscience.lonza.com). These cells were isolated from the upper arm or leg muscle tissue of normal donors and used after the second passage. Several donors were tested to ensure cell viability and purity before selecting the final donors, which are a person (refer thereafter as Donor 1), a person (refer thereafter as Donor 2) and a person (refer thereafter as Donor 3). Human primary myoblasts were seeded in 384 well plates at a density of 1′000 cells per well in skeletal muscle growth medium (SKM-M, AMSbio). For treatment, compounds were directly added to the myoblast cultures 16 hours after initial plating. All cultures were then grown for 96 hours. Cells were stained for Pax7 and MyoD expression using antibodies directed against Pax7 and MyoD and counterstained with Hoechst 33342 to visualize cell nuclei. Pax7+ cells are defined as cells that express Pax7 regardless of MyoD expression. […] Image acquisition was performed using the ImageXpress (Molecular Devices) platform. Custom module analysis based on Multi-Wavelength Cell Scoring of the MetaXpress software was used for quantification. *, **, ***, **** indicates difference from the control, One-way ANOVA, with p<0.05, p<0.01, p<0.001, p<0.0001, respectively. Data are presented as Mean+/−SEM. Human primary myoblasts from different donors (donor 1, donor 2 or donor 3) were seeded in 384 well plates at a density of 1′000 cells per well in skeletal muscle growth medium (SKM-M, AMSbio). For treatment, compounds were directly added to the myoblast cultures 16 hours after initial plating. All cultures were then grown for 96 hours. Cells were stained for Pax7 and MyoD expression using antibodies directed against Pax7 and MyoD and counterstained with Hoechst 33342 to visualize cell nuclei. Pax7+ cells are defined as cells that express Pax7 regardless of MyoD expression. […] Image acquisition was performed using the ImageXpress (Molecular Devices) platform. Custom module analysis based on Multi-Wavelength Cell Scoring of the MetaXpress software was used for quantification. […]
Compound,"proportion of Pax7+ cells (amplifying), fold change compared to the control condition (FIG. 1A/2A)","proportion of MyoD+ cells (differentiating), fold change compared to the control condition"
NC(=O)c1cccnc1 [Nicotinamide],increasing the proportion of both amplifying (Pax7+) and differentiating (MyoD+) cells in a dose dependent manner,increasing the proportion of both amplifying (Pax7+) and differentiating (MyoD+) cells in a dose dependent manner
Cc1ncc(CO)c(CO)c1O [Pyridoxine],–,increasing the proportion of differentiating (MyoD+) cells in a dose dependent manner
